Type in all cases: cell-based
Test [1] has as its system MCF-7 breast cancer cells. Nature of the test: MCF-7 proliferation / cell viability assay. As to conditions: MCF-7 proliferation with 0.1 nM 17-beta estradiol, read-out: IC50 (anti-proliferation). As for the experimental part: The Anti-Proliferative Activities of the Exemplary Compounds were Assessed by a Cell Viability Assay in MCF-7 Breast Cancer Cells
MCF-7 cells were plated in six-well plates at a density of 50,000 each well in 5% FBS DMEM medium. The cells were then treated with exemplary compounds or fulvestrant separately at 6 different doses ranging from 10^−10 M to 10^−5 M for 5 days, while equal volumes of DMSO were used as vehicle controls. Viable cell numbers were counted with a Z Series Coulter Counter instrument (Beckman-Coulter) following manufacturer's instructions. The ratio of drug treated viable cell numbers to vehicle treated viable cell numbers was defined as survival ratio where the control has the survival ratio of 100%.

The target of the next test is T1, ERα (Homo sapiens, UniProt P03372).
T1 construct: endogenous in cells; host or cells: MCF-7
T1 sequence (P03372 1-595): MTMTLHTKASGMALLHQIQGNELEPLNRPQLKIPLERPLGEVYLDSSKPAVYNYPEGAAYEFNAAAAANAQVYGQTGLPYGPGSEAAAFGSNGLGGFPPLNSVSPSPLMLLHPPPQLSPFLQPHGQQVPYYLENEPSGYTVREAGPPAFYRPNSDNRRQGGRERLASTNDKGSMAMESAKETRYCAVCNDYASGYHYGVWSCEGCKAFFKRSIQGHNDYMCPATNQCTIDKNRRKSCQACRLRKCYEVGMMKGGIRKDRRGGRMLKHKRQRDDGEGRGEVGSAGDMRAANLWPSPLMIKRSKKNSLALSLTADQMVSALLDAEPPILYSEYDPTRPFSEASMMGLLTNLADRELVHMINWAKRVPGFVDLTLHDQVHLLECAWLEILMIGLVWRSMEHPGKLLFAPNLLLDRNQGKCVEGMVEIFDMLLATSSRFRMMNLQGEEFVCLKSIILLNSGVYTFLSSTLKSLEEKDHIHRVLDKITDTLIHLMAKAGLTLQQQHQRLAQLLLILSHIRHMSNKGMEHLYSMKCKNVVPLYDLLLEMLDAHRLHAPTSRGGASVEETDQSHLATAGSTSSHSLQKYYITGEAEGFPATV
Put plainly: ER degradation in MCF-7 cells (Western blot). As to conditions: for DC50: ER degradation, 24 hours; for Dmax: MCF7, Maximal ER degradation, read-out: Dmax. As for the experimental part:
Degradation of ER in MCF-7 Breast Cancer Cells by Exemplary Compounds of the Present Disclosure
MCF-7 cells were plated in 24-well plates at a density of 10^5 cells/well. Media containing various drug concentrations were added on the day following plating (day 0) and allowed to incubate for 24 hours for Western blot. Media with the tested compound was changed every other day. Cells were lysed, snapped frozen in liquid nitrogen, and stored at −80° C. until assay for ERα. Media were removed and dishes were washed with 1× DPBS. Lysates were made by adding 150 μL of complete lysis solution and scraping cells into a 1.5 mL microcentrifuge tube. Lysates were placed on a rotisserie at 4° C. for 30 min and then spun at 4° C. at 12000 rcf for 10 min. Supernatants were assayed for protein content, snap-frozen, and stored a −80° C. if not run immediately. Then 50 μg of protein was subjected to Western blot protocol. Membranes were blocked and then incubated with 1:200 dilution of ERα antibody at 4° C. overnight followed by 1:10000 dilution of secondary antibody for 1 h at room temperature. They were then imaged on a LICOR infrared scanner.
FIGS. 1 to 10 show the ER degradation efficacy of compounds 3, 5, 9, 11, 12, 16, 18, 19, 20, 21, 23, 24, 25, 26, 27, 28, 29, 30, 31, 32, 33, 34, 37, 38, and 40 in MCF-7 cells at various concentrations. Degradation of ER was expressed as an DC50 value and was determined for exemplary compounds in Table 1 by calculation of the concentration of compound that was required to give a 50% reduction of ER expression level. Maximal degradation of ER was expressed as a Dmax value by measuring the highest percentage of ER reduction achieved by exemplary compound in the treatment concentration range.
A general note: In western blotting, separated proteins are transferred to a membrane and probed.

A further test concerns the target T2, ER (Homo sapiens, UniProt P03372).
T2 construct: endogenous in cells; host or cells: T47d-kb-Luc (T47D stably transfected with a luciferase reporter gene only)
T2 sequence (P03372 1-595): T1 sequence (P03372 1-595)
Nature of the test: ER antagonism (T47D ERE luciferase), T47d-kb-Luc cells. As to conditions: read-out: IC50 (ER antagonistm). As to the method:
The Antiestrogenic Activity of the Exemplary Compounds was Assessed in T47d-kb-Luc Stably Transfected Human Breast Cancer Cell
Antagonist activities were measured by the compound's ability to inhibit the activity of estradiol, the natural estrogen. Data were then normalized relative to the activity of the estradiol control and determinations were performed for five concentrations of the samples in quadruplicate in at least three separate experiments.

pIC50: −log10 of the molar value. Where two headings read alike, the source gives them in different places.

One may read the DC50 as the concentration at which degradation of the target reaches its halfway point. Read a low DC50 as degradation at low concentration. In general, Dmax refers to the greatest extent of degradation seen.

`CCC(=C(c1ccc(OCCN2CCN(CC3CCN(c4ccc5c(c4)C(=O)N(C4CCC(=O)NC4=O)C5=O)CC3)CC2)cc1)c1ccc(B(O)O)cc1)c1ccccc1` (stereo in doubt) [Compound 18, (E)-(4-(1-(4-(2-(4-((1-(2-(2,6-dioxopiperidin-3-yl)-1,3-dioxoisoindolin-5-yl)piperidin-4-yl)methyl)piperazin-1-yl)ethoxy)phenyl)-2-phenylbut-1-en-1-yl)phenyl)boronic acid]: the pIC50 (in test [1]; at ER) was 7.30 to 8.00 throughout. This compound also gave a half-maximal degradation concentration (DC50) at ERα of less than 10 nM.

Consider `CC/C(=C(\c1ccc(B(O)O)cc1)c1ccc(N2CCC(CN3CCN(c4ccc5c(c4)CN(C4CCC(=O)NC4=O)C5=O)CC3)CC2)cc1)c1ccccc1` (stereo not drawn) [Compound 1], for which the pIC50 in test [1] (Homo sapiens, MCF7) was 7.30 to 8.00; at ER it was 7.30 to 8.00. The compound also gave a DC50 on ERα of less than 10 nM. The Dmax on ERα was greater than 90%.

With `CC/C(=C(/c1ccc(B(O)O)cc1)c1ccc(N2CCC(CN3CCN(c4ccc5c(c4)CN(C4CCC(=O)NC4=O)C5=O)CC3)CC2)cc1)c1ccccc1` (stereo not drawn) [Compound 2, (E)-(4-(1-(4-(4-((4-(2-(2,6-dioxopiperidin-3-yl)-1-oxoisoindolin-5-yl)piperazin-1-yl)methyl)piperidin-1-yl)phenyl)-2-phenylbut-1-en-1-yl)phenyl)boronic acid], in test [1] (Homo sapiens, MCF7), the pIC50 is 7.30 to 8.00. Moreover, at ERα, the DC50 was less than 10 nM and the Dmax was greater than 90%. Moreover, on ER, the pIC50 was 7.30 to 8.00.

As to `CC/C(=C(\c1ccc(B(O)O)cc1)c1ccc(N2CCC(CN3CCN(c4ccc5c(c4)C(=O)N(C4CCC(=O)NC4=O)C5)CC3)CC2)cc1)c1ccccc1` (stereo not drawn) [Compound 3, (Z)-(4-(1-(4-(4-((4-(2-(2,6-dioxopiperidin-3-yl)-3-oxoisoindolin-5-yl)piperazin-1-yl)methyl)piperidin-1-yl)phenyl)-2-phenylbut-1-en-1-yl)phenyl)boronic acid], the pIC50 in test [1] (Homo sapiens, MCF7) was greater than 8.00. Moreover, on ERα, the DC50 is greater than 50 nM and the greatest degradation seen (Dmax) is greater than 75%. The pIC50 at ER was greater than 8.00.

For `CC/C(=C(/c1ccc(B(O)O)cc1)c1ccc(N2CCC(CN3CCN(c4ccc5c(c4)C(=O)N(C4CCC(=O)NC4=O)C5)CC3)CC2)cc1)c1ccccc1` (stereo not drawn) [Compound 4, (E)-(4-(1-(4-(4-((4-(2-(2,6-dioxopiperidin-3-yl)-3-oxoisoindolin-5-yl)piperazin-1-yl)methyl)piperidin-1-yl)phenyl)-2-phenylbut-1-en-1-yl)phenyl)boronic acid], the pIC50 in test [1] (Homo sapiens, MCF7) is greater than 8.00; on ER it was greater than 8.00. In addition, the 50% degradation concentration (DC50) at ERα is greater than 50 nM. The Dmax at ERα is greater than 75%.

Regarding `CC/C(=C(\c1ccc(B(O)O)cc1)c1ccc(N2CCC(CN3CCN(c4ccc5c(c4)C(=O)N(C4CCC(=O)NC4=O)C5=O)CC3)CC2)cc1)c1ccccc1` (stereo not drawn) [Compound 5, (Z)-(4-(1-(4-(4-((4-(2-(2,6-dioxopiperidin-3-yl)-1,3-dioxoisoindolin-5-yl)piperazin-1-yl)methyl)piperidin-1-yl)phenyl)-2-phenylbut-1-en-1-yl)phenyl)boronic acid], in test [1] (Homo sapiens, MCF7), the pIC50 is less than 7.30. Besides, at ERα, the DC50 is 10 to 50 nM and the Dmax was greater than 90%. Further, at ER, the pIC50 is 7.30 to 8.00.

Consider `CC/C(=C(/c1ccc(B(O)O)cc1)c1ccc(N2CCC(CN3CCN(c4ccc5c(c4)C(=O)N(C4CCC(=O)NC4=O)C5=O)CC3)CC2)cc1)c1ccccc1` (stereo not drawn) [Compound 6, (E)-(4-(1-(4-(4-((4-(2-(2,6-dioxopiperidin-3-yl)-1,3-dioxoisoindolin-5-yl)piperazin-1-yl)methyl)piperidin-1-yl)phenyl)-2-phenylbut-1-en-1-yl)phenyl)boronic acid], for which the pIC50 in test [1] (Homo sapiens, MCF7) was less than 7.30; on ER, 7.30 to 8.00. This compound showed a DC50 at ERα of 10 to 50 nM. The maximal degradation (Dmax) on ERα is greater than 90%.

(Values after patent US20220348595A1, “COMPOUNDS AND METHODS FOR THE TARGETED DEGRADATION OF ESTROGEN RECEPTORS” (Endotarget Inc., priority 2021, published 2022).)
